This note sets out measurements from ChEMBL document CHEMBL4680246, “Design, synthesis and biological evaluation of novel O-carbamoyl ferulamide derivatives as multi-target-directed ligands for the treatment of Alzheimer's disease” (Eur J Med Chem, 2020).

Assay [1] concerns the target T1, Amine oxidase [flavin-containing] B (Homo sapiens, UniProt P27338).
T1 sequence (P27338 whole entry): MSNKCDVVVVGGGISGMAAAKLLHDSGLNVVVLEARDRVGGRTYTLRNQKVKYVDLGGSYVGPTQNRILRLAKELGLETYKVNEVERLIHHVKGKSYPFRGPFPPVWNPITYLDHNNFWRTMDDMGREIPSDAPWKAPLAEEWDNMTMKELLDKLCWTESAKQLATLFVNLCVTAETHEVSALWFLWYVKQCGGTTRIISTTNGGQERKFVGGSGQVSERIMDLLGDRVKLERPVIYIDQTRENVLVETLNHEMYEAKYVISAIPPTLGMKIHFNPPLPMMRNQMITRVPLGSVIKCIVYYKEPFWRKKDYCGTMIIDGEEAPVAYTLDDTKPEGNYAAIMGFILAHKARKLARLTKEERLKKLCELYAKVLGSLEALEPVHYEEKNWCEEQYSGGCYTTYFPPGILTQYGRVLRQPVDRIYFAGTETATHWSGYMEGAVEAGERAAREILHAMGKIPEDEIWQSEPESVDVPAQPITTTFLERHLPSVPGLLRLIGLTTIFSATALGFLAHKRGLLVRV
Put plainly: Inhibition of recombinant human MAO-B.

In assay [2] the target is Cholinesterase (Equus caballus) (UniProt P81908). Put plainly: Inhibition of equine serum BuChE at 25 uM using BTC as substrate after 15 mins by Ellman's method relative to control. On the technique in general: DTNB colorimetry detects thiols as they appear.
Chain of Cholinesterase (Equus caballus) (P81908 whole entry): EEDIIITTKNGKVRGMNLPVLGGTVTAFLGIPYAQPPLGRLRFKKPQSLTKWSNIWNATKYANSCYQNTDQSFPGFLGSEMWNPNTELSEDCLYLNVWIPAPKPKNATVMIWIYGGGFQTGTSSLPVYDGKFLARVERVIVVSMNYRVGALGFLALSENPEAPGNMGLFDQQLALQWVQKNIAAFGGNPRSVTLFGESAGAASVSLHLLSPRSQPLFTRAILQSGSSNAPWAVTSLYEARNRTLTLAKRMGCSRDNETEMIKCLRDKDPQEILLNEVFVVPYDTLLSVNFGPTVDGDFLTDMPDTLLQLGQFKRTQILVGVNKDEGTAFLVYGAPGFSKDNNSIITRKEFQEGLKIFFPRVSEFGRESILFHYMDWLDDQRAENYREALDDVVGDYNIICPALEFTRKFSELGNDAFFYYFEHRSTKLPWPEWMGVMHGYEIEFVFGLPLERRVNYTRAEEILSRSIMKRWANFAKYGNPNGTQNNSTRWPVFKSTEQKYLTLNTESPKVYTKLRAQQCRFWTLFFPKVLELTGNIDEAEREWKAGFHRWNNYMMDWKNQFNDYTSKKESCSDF
Assay [3] concerns the target T2, Cholinesterase (Homo sapiens, UniProt P06276). Put plainly: Inhibition of human serum BuChE using acetylcholine iodide as substrate incubated for 15 mins by Ellman's method.
Assay [4] concerns the target Acetylcholinesterase (Homo sapiens, UniProt P22303). Briefly: Inhibition of human erythrocytes AChE using acetylcholine iodide as substrate incubated for 15 mins by Ellman's method.
Assay [5] has as its target T3, Amine oxidase [flavin-containing] A (Homo sapiens, UniProt P21397).
T3 sequence (P21397 whole entry): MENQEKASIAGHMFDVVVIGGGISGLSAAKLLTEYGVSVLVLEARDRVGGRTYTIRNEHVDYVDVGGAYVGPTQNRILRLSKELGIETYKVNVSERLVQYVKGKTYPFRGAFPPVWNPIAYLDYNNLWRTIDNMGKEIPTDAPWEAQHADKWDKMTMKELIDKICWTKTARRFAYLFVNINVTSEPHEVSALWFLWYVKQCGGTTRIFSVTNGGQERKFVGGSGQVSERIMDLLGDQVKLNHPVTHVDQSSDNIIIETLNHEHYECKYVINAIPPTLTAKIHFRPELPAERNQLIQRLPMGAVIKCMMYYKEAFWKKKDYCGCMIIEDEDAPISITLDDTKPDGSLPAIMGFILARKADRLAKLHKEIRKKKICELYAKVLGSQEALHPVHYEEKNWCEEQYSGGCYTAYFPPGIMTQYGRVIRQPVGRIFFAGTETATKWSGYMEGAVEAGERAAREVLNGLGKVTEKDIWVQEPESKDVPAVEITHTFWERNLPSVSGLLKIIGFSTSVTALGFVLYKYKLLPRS
Briefly: Inhibition of recombinant human MAO-A.

For assay [6], the species on record is Homo sapiens. Briefly: Selectivity index, ratio of IC50 for recombinant human MAO-A to IC50 for recombinant human MAO-B.
In assay [7] the target is Cholinesterase (Equus caballus, UniProt P81908). Briefly: Inhibition of equine serum BuChE using BTC as substrate after 15 mins by Ellman's method.
Chain of Cholinesterase (Equus caballus, UniProt P81908) (P81908 whole entry): as the sequence (P81908 whole entry) above
Assay [8] is filed under the species Homo sapiens. Put plainly: Selectivity index, ratio of IC50 for human erythrocytes Ache to IC50 for human serum BuChe.
Assay [9] has as its target Acetylcholinesterase (Electrophorus electricus, UniProt O42275). Briefly: Inhibition of Electrophorus electricus AChE using acetylcholine iodide as substrate incubated for 15 mins by Ellman's method.
The species entered for assay [10] is Danio rerio. Briefly: Antialzheimer activity in AlCl3-induced Zebrafish model of Alzheimer's disease assessed as motility distance at 8 uM (reference value: 5346 mm). Type of assay: functional.
The species entered for assay [11] is Danio rerio. Put plainly: Antialzheimer activity in AlCl3-induced Zebrafish model of Alzheimer's disease assessed as increase in motility speed at 8 uM relative to control. Type of assay: functional.
For assay [12], the species on record is Danio rerio. Put plainly: Antialzheimer activity in AlCl3-induced Zebrafish model of Alzheimer's disease assessed as change in motility speed at 8 uM (reference value: 1.08 mm/s). It is filed as functional.
For assay [13], the target named is T2, Cholinesterase. Briefly: Inhibition of human serum BuChE assessed as residual activity at 0.1 times IC50 using acetylcholine iodide as substrate measured after dilution by Ellman's method relative to control.
For assay [14], the species on record is Danio rerio. Put plainly: Antialzheimer activity in AlCl3-induced Zebrafish model of Alzheimer's disease assessed as increase in motility distance at 8 uM relative to control. Type of assay: functional.
The next assay concerns Mus musculus. Briefly: Improvement in cognitive impairment in scopolamine-induced mouse model of amnesia assessed as increase in spontaneous alteration at 10 mg/kg by Y-maze test. Type of assay: functional, organism-based.

SMILES strings stand for the structures. Active and inactive are the calls of the source. No cut-off for these calls is given here. A value given as a limit tells only on which side of the number the result lay.

As usually defined, the IC50 is the concentration needed to halve the response being measured. By inhibition is commonly meant how much of the control response was suppressed. Lower therefore signals little suppression.

T2 sequence (P06276 whole entry): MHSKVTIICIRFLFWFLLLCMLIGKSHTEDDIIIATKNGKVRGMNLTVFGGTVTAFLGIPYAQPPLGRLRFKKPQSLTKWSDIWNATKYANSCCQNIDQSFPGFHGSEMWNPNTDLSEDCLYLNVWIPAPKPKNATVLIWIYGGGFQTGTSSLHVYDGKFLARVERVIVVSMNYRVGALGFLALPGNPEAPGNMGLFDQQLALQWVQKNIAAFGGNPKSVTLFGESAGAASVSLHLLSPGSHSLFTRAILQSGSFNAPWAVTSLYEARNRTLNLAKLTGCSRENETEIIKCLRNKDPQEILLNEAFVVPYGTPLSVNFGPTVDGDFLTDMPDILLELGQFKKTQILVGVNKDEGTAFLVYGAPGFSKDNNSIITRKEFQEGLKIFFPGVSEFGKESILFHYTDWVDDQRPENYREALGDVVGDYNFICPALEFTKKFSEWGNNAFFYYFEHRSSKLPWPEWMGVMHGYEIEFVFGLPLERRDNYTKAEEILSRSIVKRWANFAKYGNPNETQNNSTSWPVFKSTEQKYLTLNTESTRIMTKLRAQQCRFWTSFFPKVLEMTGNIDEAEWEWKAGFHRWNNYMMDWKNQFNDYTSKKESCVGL
Chain of Acetylcholinesterase (Electrophorus electricus, UniProt O42275) (O42275 whole entry): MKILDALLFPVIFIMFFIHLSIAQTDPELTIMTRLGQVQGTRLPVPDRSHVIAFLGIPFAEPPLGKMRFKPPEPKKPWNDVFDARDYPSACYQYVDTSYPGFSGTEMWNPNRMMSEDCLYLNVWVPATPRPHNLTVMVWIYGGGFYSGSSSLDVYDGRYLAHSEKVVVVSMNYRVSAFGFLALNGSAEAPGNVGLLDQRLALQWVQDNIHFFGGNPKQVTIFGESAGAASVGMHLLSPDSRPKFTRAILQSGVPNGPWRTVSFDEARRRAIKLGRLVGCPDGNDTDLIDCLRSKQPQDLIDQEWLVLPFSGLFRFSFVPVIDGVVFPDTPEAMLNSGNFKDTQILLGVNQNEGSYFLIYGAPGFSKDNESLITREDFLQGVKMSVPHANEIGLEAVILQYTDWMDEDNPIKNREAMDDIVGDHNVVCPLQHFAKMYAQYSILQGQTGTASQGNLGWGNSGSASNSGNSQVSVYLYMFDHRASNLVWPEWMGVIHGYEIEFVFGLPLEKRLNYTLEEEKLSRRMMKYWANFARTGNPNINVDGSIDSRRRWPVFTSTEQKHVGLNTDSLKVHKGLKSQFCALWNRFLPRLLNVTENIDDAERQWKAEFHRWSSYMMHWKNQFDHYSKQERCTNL
Chain of Acetylcholinesterase (Homo sapiens, UniProt P22303) (P22303 whole entry): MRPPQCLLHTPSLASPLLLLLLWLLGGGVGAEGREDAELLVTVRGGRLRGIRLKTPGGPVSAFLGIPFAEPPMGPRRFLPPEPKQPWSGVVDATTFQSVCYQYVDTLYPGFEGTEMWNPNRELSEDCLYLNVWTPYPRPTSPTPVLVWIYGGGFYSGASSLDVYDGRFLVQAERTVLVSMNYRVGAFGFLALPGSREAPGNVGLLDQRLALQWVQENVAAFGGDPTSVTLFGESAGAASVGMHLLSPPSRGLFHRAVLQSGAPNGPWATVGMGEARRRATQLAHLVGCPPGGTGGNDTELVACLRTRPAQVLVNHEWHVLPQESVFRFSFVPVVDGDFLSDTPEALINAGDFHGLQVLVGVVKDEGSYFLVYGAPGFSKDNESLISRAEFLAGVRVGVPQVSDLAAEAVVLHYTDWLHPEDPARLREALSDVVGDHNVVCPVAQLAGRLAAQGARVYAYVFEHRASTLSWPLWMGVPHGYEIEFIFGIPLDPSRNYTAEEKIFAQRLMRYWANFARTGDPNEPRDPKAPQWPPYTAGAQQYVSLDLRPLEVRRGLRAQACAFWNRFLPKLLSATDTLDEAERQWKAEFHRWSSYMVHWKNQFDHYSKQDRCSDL

`COc1cc(/C=C/C(=O)N2CCC(Cc3ccccc3)CC2)ccc1OC(=O)N(c1ccccc1)c1ccccc1`: the IC50 was 13.3 µM in assay [1]; 36.7 µM against Cholinesterase [3]; 32.1 µM on Acetylcholinesterase [4]; 34.6 µM in [5]; more than 100 µM against Cholinesterase [7]; 88.3 µM against Acetylcholinesterase [9]. Further, the inhibition in assay [2] was determined as 6.6%. For the same molecule, the Ratio IC50 in the assay filed under Homo sapiens [6] stood at 2.6; in the assay listed under Homo sapiens [8] it was 0.9.
`COc1cc(/C=C/C(=O)N2CCCCC2)ccc1OC(=O)N(c1ccccc1)c1ccccc1`: the IC50 in assay [1] is 21.8 µM; on Cholinesterase [3], 22.9 µM; against Acetylcholinesterase [4], 27.2 µM; in [5] it was 46.2 µM; at Cholinesterase [7] it was 98.5 µM; against Acetylcholinesterase [9], 21.8 µM. In assay [2], this molecule displayed an inhibition of 20%. Further, the results for the Ratio IC50 in the assay filed under Homo sapiens [6] and in the assay listed under Homo sapiens [8] were 2.1 and 1.2, respectively.
As to `COc1cc(/C=C/C(=O)N2CCN(Cc3ccccc3)CC2)ccc1OC(=O)N(c1ccccc1)c1ccccc1`, the IC50 in assay [1] was 31.8 µM; against Cholinesterase [3], 22.3 µM; at Acetylcholinesterase [4], 28.7 µM; in assay [5], 14.7 µM; on Cholinesterase [7] it was more than 100 µM; against Acetylcholinesterase [9] it was 89.8 µM. The inhibition in assay [2] was 9.7%. Besides, the Ratio IC50 worked out at 0.5 in the assay listed under Homo sapiens [6] and 1.3 in the assay filed under Homo sapiens [8].
On to `COc1cc2c(cc1OC)C(=O)C(CC1CCN(Cc3ccccc3)CC1)C2` (stereo not drawn) [DONEPEZIL], for which the figures for the Activity in the assay listed under Danio rerio [10], in the assay filed under Danio rerio [12] and at Cholinesterase [13] were 6477 mm, “<=1.88 millimeter/sec” and 63.2%, respectively. Further, the Efficacy in the assay filed under Danio rerio [11] is listed as 64.5%; in the assay listed under Danio rerio [14], 57.9%.
Regarding `CC(=O)OCC[N+](C)(C)C`, the outcome in the assay on Mus musculus was inactive.
